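Protocol summary: plate cells (96-well), add compound at 5 concentrations, incubate 48 h, interpolate endpoints linearly. Abbreviation: GI50, concentration required for 50% inhibition of growth.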 Active and inactive are the calls of the source. Cut-off read from the data, not from the text of the source: active = GI50 up to about 1.1 µM and inactive = higher.
What was measured:
Test in all cases: growth of human tumour cells (NCI), 48 h
CAKI-1 = test system: CAKI-1
M14 = test system: M14
NCI/ADR-RES = test system: NCI/ADR-RES
A549 = test system: A549
SNB-75 = test system: SNB-75
MCF7 = test system: MCF7
HOP-62 = test system: HOP-62
HCT-116 = test system: HCT-116
SW-620 = test system: SW-620
HCC 2998 = test system: HCC 2998
SR = test system: SR
CCRF-CEM = test system: CCRF-CEM
NCI-H23 = test system: NCI-H23
SK-OV-3 = test system: SK-OV-3
COLO 205 = test system: COLO 205
RPMI-8226 = test system: RPMI-8226
OVCAR-5 = test system: OVCAR-5
SF-268 = test system: SF-268
SK-MEL-5 = test system: SK-MEL-5
DU-145 = test system: DU-145
MDA-MB-231 = test system: MDA-MB-231
OVCAR-8 = test system: OVCAR-8
HT-29 = test system: HT-29
EKVX = test system: EKVX
SN12C = test system: SN12C
786-0 = test system: 786-0
PC-3 = test system: PC-3
RXF 393 = test system: RXF 393
MOLT-4 = test system: MOLT-4
MDA-N = test system: MDA-N
NCI-H460 = test system: NCI-H460
Hs-578T = test system: Hs-578T
MDA-MB-435 = test system: MDA-MB-435
KM12 = test system: KM12
K562 = test system: K562
SNB-19 = test system: SNB-19
OVCAR-3 = test system: OVCAR-3
UACC-257 = test system: UACC-257
HL-60 = test system: HL-60
TK-10 = test system: TK-10
LOX IMVI = test system: LOX IMVI
SF-539 = test system: SF-539
HOP-92 = test system: HOP-92
A498 = test system: A498
SK-MEL-28 = test system: SK-MEL-28
SF-295 = test system: SF-295
NCI-H226 = test system: NCI-H226
Malme-3M = test system: Malme-3M
ACHN = test system: ACHN
NCI-H522 = test system: NCI-H522
IGROV-1 = test system: IGROV-1
UACC-62 = test system: UACC-62
OVCAR-4 = test system: OVCAR-4
UO-31 = test system: UO-31
SK-MEL-2 = test system: SK-MEL-2
HCT-15 = test system: HCT-15
U-251 = test system: U-251
BT-549 = test system: BT-549

[O-][n+]1onc(-c2ccccc2)c1-c1no[n+]([O-])c1-c1c(-c2ccccc2)no[n+]1[O-]
GI50 (CAKI-1): 12.8 µM (inactive) | GI50 (M14): 12.1 µM (inactive) | GI50 (NCI/ADR-RES): 3.98 µM (inactive) | GI50 (A549): 23.1 µM (inactive) | GI50 (SNB-75): 2.52 µM (inactive) | GI50 (MCF7): 3.23 µM (inactive) | GI50 (HOP-62): 14.9 µM (inactive) | GI50 (HCT-116): 3.3 µM (inactive) | GI50 (SW-620): 4.1 µM (inactive) | GI50 (HCC 2998): 74.1 µM (inactive) | GI50 (SR): 2.7 µM (inactive) | GI50 (CCRF-CEM): 5.18 µM (inactive) | GI50 (NCI-H23): 3.72 µM (inactive) | GI50 (SK-OV-3): 43.8 µM (inactive) | GI50 (COLO 205): 6.37 µM (inactive) | GI50 (RPMI-8226): 3.03 µM (inactive) | GI50 (OVCAR-5): 18.6 µM (inactive) | GI50 (SF-268): 12.6 µM (inactive) | GI50 (SK-MEL-5): 14.8 µM (inactive) | GI50 (DU-145): 9.89 µM (inactive) | GI50 (MDA-MB-231): 15.8 µM (inactive) | GI50 (OVCAR-8): 24.1 µM (inactive) | GI50 (HT-29): 3.62 µM (inactive) | GI50 (EKVX): 37.2 µM (inactive) | GI50 (SN12C): 7.67 µM (inactive) | GI50 (786-0): 8.93 µM (inactive) | GI50 (PC-3): 2.47 µM (inactive) | GI50 (RXF 393): 3.35 µM (inactive) | GI50 (MOLT-4): 3.56 µM (inactive) | GI50 (MDA-N): 2.58 µM (inactive) | GI50 (NCI-H460): 3.27 µM (inactive) | GI50 (Hs-578T): 54.1 µM (inactive) | GI50 (MDA-MB-435): 2.34 µM (inactive) | GI50 (KM12): 7.43 µM (inactive) | GI50 (K562): 2.51 µM (inactive) | GI50 (SNB-19): 27 µM (inactive) | GI50 (OVCAR-3): 5.71 µM (inactive) | GI50 (UACC-257): 13.1 µM (inactive) | GI50 (HL-60): 2.43 µM (inactive) | GI50 (TK-10): 44.5 µM (inactive) | GI50 (LOX IMVI): 2.82 µM (inactive) | GI50 (SF-539): 21 µM (inactive) | GI50 (HOP-92): 10.6 µM (inactive) | GI50 (A498): 13.9 µM (inactive) | GI50 (SK-MEL-28): 33.7 µM (inactive) | GI50 (SF-295): 24.8 µM (inactive) | GI50 (NCI-H226): 15.2 µM (inactive) | GI50 (Malme-3M): 20.4 µM (inactive) | GI50 (ACHN): 4.81 µM (inactive) | GI50 (NCI-H522): 18.8 µM (inactive) | GI50 (IGROV-1): 8.83 µM (inactive) | GI50 (UACC-62): 12.6 µM (inactive) | GI50 (OVCAR-4): 2.94 µM (inactive) | GI50 (UO-31): 7.4 µM (inactive)

CCOC(=O)C(O)(NC(=O)NC(O)(C(=O)OCC)C(F)(F)F)C(F)(F)F (stereo not given)
GI50 (NCI/ADR-RES): > 100 µM (inactive) | GI50 (SNB-75): > 100 µM (inactive) | GI50 (HCT-116): > 100 µM (inactive) | GI50 (HCC 2998): > 100 µM (inactive) | GI50 (SR): > 100 µM (inactive) | GI50 (CCRF-CEM): > 100 µM (inactive) | GI50 (NCI-H23): > 100 µM (inactive) | GI50 (SK-OV-3): > 100 µM (inactive) | GI50 (COLO 205): > 100 µM (inactive) | GI50 (RPMI-8226): > 100 µM (inactive) | GI50 (OVCAR-5): > 100 µM (inactive) | GI50 (SF-268): > 100 µM (inactive) | GI50 (HT-29): > 100 µM (inactive) | GI50 (SN12C): > 100 µM (inactive) | GI50 (786-0): > 100 µM (inactive) | GI50 (PC-3): > 100 µM (inactive) | GI50 (RXF 393): > 100 µM (inactive) | GI50 (MOLT-4): > 100 µM (inactive) | GI50 (MDA-N): > 100 µM (inactive) | GI50 (K562): > 100 µM (inactive) | GI50 (SNB-19): > 100 µM (inactive) | GI50 (UACC-257): > 100 µM (inactive) | GI50 (HL-60): > 100 µM (inactive) | GI50 (LOX IMVI): > 100 µM (inactive) | GI50 (SF-539): > 100 µM (inactive) | GI50 (A498): > 100 µM (inactive) | GI50 (SK-MEL-28): > 100 µM (inactive) | GI50 (SK-MEL-2): > 100 µM (inactive) | GI50 (ACHN): > 100 µM (inactive) | GI50 (HCT-15): > 100 µM | GI50 (U-251): > 100 µM (inactive) | GI50 (UO-31): > 100 µM (inactive)

COc1cc2c[n+](C)c3c4cc(OC)c(OC)cc4ccc3c2cc1OC
GI50 (A549): 58.7 µM (inactive) | GI50 (HOP-62): 97.7 µM (inactive) | GI50 (HCT-116): 68.5 µM (inactive) | GI50 (SW-620): > 66.1 µM (inactive) | GI50 (CCRF-CEM): 18.8 µM (inactive) | GI50 (SK-OV-3): 88.9 µM (inactive) | GI50 (COLO 205): 11.8 µM (inactive) | GI50 (RPMI-8226): 57.1 µM (inactive) | GI50 (OVCAR-5): > 100 µM (inactive) | GI50 (SK-MEL-5): 32 µM (inactive) | GI50 (DU-145): 25 µM (inactive) | GI50 (EKVX): > 63 µM (inactive) | GI50 (786-0): > 58.5 µM (inactive) | GI50 (PC-3): 74.1 µM (inactive) | GI50 (MDA-MB-435): > 85.7 µM (inactive) | GI50 (K562): 16.6 µM (inactive) | GI50 (OVCAR-3): 29.3 µM (inactive) | GI50 (UACC-257): 74.1 µM (inactive) | GI50 (TK-10): > 100 µM (inactive) | GI50 (LOX IMVI): 54 µM (inactive) | GI50 (A498): > 100 µM (inactive) | GI50 (SF-295): 69 µM (inactive) | GI50 (NCI-H522): 7.11 µM (inactive) | GI50 (IGROV-1): 23 µM (inactive) | GI50 (UACC-62): > 82.8 µM (inactive) | GI50 (OVCAR-4): > 38.5 µM (inactive) | GI50 (BT-549): 20.4 µM (inactive)

CN(C)CCCn1c(-c2cc(C(C)(C)C)c(O)c(C(C)(C)C)c2)cs/c1=N\c1ccccc1
GI50 (CAKI-1): 17.8 µM (inactive) | GI50 (M14): 1.72 µM (inactive) | GI50 (NCI/ADR-RES): 1.79 µM (inactive) | GI50 (A549): 1.77 µM (inactive) | GI50 (SNB-75): 3.88 µM (inactive) | GI50 (HOP-62): 1.89 µM (inactive) | GI50 (SW-620): 76.6 µM (inactive) | GI50 (HCC 2998): 1.85 µM (inactive) | GI50 (NCI-H23): 1.68 µM (inactive) | GI50 (SK-OV-3): 1.96 µM (inactive) | GI50 (RPMI-8226): 1.4 µM (inactive) | GI50 (OVCAR-5): 2.23 µM (inactive) | GI50 (SF-268): 1.85 µM (inactive) | GI50 (MDA-MB-231): 2.34 µM (inactive) | GI50 (OVCAR-8): 1.97 µM (inactive) | GI50 (EKVX): 2.16 µM (inactive) | GI50 (SN12C): 2.08 µM (inactive) | GI50 (PC-3): 1.87 µM (inactive) | GI50 (RXF 393): 2.17 µM (inactive) | GI50 (MOLT-4): 0.131 µM (active) | GI50 (NCI-H460): 2.35 µM (inactive) | GI50 (MDA-MB-435): 2.34 µM (inactive) | GI50 (KM12): 1.91 µM (inactive) | GI50 (SNB-19): 2.14 µM (inactive) | GI50 (OVCAR-3): 1.61 µM (inactive) | GI50 (UACC-257): 1.47 µM (inactive) | GI50 (HL-60): 0.1 µM (active) | GI50 (TK-10): 1.95 µM (inactive) | GI50 (SF-539): 1.75 µM (inactive) | GI50 (HOP-92): 2.26 µM (inactive) | GI50 (A498): 1.94 µM (inactive) | GI50 (SK-MEL-28): 2.39 µM (inactive) | GI50 (SF-295): 1.79 µM (inactive) | GI50 (SK-MEL-2): 3.06 µM (inactive) | GI50 (NCI-H226): 1.98 µM (inactive) | GI50 (ACHN): 2.98 µM (inactive) | GI50 (UACC-62): 2.3 µM (inactive) | GI50 (OVCAR-4): 2.09 µM (inactive) | GI50 (HCT-15): 3.24 µM | GI50 (BT-549): 3.13 µM (inactive) | GI50 (U-251): 2.93 µM (inactive) | GI50 (UO-31): 1.97 µM (inactive)

From ChEMBL document CHEMBL1201862, “PubChem BioAssay data set” (2004)
